This is an account of results in US20260365653A1, “IRREVERSIBLE MUTEGFR INHIBITORS” (Bayer Aktiengesellschaft, priority 2022, published 2026).

Experiment [1] has as its target T1, mutEGFR (D770_N771insSVD) (Homo sapiens, UniProt P00533, DUP768-770).
T1 construct: GST-EGFR #3 (SVD between D770 and N771); made in house; host or cells: Sf9 insect cells (baculovirus)
The experiment is described as follows: Exon20-Mutant-EGFR (D770_N771insSVD) kinase assay (TR-FRET). As to conditions: mutEGFR (D770_N771insSVD) kinase assay IC50, Table 2a; D770_N771insSVD; 2 mM ATP. It is filed as biochemical.

Experiment [2] addresses T2, mutEGFR (D770_N771insNPG, T790) (Homo sapiens, UniProt P00533, INS770NPG/T790M).
T2 construct: exact insNPG construct not described; in-house EGFR proteins were N-terminal GST fusions from baculovirus/insect cells (borders R669-A1210 given only for WT, insSVD, insASV)
In words: mutEGFR (D770_N771insNPG, T790) kinase assay. As to conditions: Table 2a, D770_N771insNPG. The class given is biochemical. The source says: The different EGFR proteins used in the biochemical kinase activity inhibition assays were generated inhouse by expression in insect cells using Baculo Virus system and subsequent purification as described in the following paragraphs.
The cDNAs encoding the various protein sequences from human EGFR human (P00533) were optimized for expression in eukaryotic cells and synthesized by the GeneArt Technology at Life Technologies.

The next experiment deals with BA/F3 (insSVD) cells. In words: Ba/F3-EGFR-insSVD cell survival assay (Cell Titer-Glo). It is filed as cell-based. As to conditions: Mus musculus, BaF3, 48 h, Table 3a, cell survival, Cell Titer-Glo, with 10 ng/ml EGF, without IL-3. Summed up:
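CellTiter-Glo luminescence read after 48 h compound exposure at 37° C. Cells: IL-3-independent Ba/F3 lines transduced with EGFR-insSVD or EGFR-insSVD T790M, maintained on 10 ng/ml EGF and seeded at 4000 per well.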

T1 sequence (P00533 with tags, fused parts or gaps DUP768-770): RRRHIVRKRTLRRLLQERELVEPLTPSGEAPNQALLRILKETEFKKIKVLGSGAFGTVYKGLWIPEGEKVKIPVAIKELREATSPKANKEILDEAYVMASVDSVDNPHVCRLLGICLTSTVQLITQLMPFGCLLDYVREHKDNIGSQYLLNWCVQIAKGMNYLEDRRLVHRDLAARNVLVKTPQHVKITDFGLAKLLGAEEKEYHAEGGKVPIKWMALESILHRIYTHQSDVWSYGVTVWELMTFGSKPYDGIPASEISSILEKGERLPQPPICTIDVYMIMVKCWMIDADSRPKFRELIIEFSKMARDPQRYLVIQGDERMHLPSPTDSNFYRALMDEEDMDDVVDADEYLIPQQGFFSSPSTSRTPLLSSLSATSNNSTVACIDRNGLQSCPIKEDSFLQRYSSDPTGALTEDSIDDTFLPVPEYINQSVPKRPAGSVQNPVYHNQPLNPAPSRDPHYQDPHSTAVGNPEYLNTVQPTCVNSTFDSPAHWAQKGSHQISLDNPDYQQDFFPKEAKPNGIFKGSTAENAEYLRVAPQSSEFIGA
T2 sequence (P00533 with tags, fused parts or gaps INS770NPG/T790M limits assumed): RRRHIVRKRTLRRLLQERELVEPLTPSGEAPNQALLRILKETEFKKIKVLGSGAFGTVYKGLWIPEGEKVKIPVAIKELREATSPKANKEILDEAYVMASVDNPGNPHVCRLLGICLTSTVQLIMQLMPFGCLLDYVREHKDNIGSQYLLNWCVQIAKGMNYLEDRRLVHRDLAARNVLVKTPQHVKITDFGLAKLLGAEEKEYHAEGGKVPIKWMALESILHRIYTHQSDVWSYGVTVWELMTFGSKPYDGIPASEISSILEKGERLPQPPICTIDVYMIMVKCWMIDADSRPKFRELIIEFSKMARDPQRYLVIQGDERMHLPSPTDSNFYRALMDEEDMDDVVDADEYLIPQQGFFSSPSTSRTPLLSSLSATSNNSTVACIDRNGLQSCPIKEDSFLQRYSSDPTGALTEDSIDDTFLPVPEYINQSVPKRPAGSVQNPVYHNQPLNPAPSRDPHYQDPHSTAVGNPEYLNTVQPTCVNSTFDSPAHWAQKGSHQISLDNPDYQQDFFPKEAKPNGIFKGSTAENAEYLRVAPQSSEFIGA

With `C=CC(=O)N1CCn2nc(-c3ccc(Cl)cc3F)c(-c3ccncc3C)c2C1` [Example 50, 1-[2-(4-chloro-2-fluorophenyl)-3-(3-methylpyridin-4-yl)-6,7-dihydropyrazolo[1,5-a]pyrazin-5(4H)-yl]prop-2-en-1-one], the IC50 in experiment [1] was determined as 8.5 nM; in experiment [2], 135 nM; in the experiment with BA/F3 (insSVD) cells, 156 nM.

`C=CC(=O)N1CCn2nc(-c3ccc(Cl)cc3F)c(-c3c(F)cnc4[nH]ccc34)c2C1` [Example 51, 1-[2-(4-chloro-2-fluorophenyl)-3-(5-fluoro-1H-pyrrolo[2,3-b]pyridin-4-yl)-6,7-dihydropyrazolo[1,5-a]pyrazin-5(4H)-yl]prop-2-en-1-one]: the IC50 in experiment [1] is 6.64 nM; in experiment [2], 25.7 nM; with BA/F3 (insSVD) cells, 54.7 nM.

With `C=CC(=O)N1CCn2nc(-c3ccc(Cl)cc3F)c(-c3ccnc4[nH]cc(F)c34)c2C1` [Example 52, 1-[2-(4-chloro-2-fluorophenyl)-3-(3-fluoro-1H-pyrolo[2,3-b]pyridin-4-yl)-6,7-dihydropyrazolo[1,5-a]pyrazin-5(4H)-yl]prop-2-en-1-one], the values for the IC50 (in experiment [1]; in experiment [2]; with BA/F3 (insSVD) cells) were 6.05 nM, 22.7 nM and 35.5 nM, respectively.

On to `C=CC(=O)N1CCn2nc(-c3ccc(Cl)cc3F)c(-c3ccnc(NC)c3)c2C1` [Example 53, 1-[2-(4-chloro-2-fluorophenyl)-3-[2-(methylamino)pyridin-4-yl]-6,7-dihydropyrazolo[1,5-a]pyrazin-5(4H)-yl]prop-2-en-1-one], for which the figures for the IC50 (in experiment [1]; in experiment [2]; in the experiment on BA/F3 (insSVD) cells) were 0.997 nM, 7.05 nM and 44.2 nM, respectively.

As for `C=CC(=O)N1CCn2nc(-c3ccc(C(F)(F)F)cc3)c(-c3ccnc4[nH]c(C)cc34)c2C1` [Example 54, 1-[3-(2-methyl-1H-pyrrolo[2,3-b]pyridin-4-yl)-2-[4-(trifluoromethyl)phenyl]-6,7-dihydropyrazolo[1,5-a]pyrazin-5(4H)-yl]prop-2-en-1-one], the IC50 in experiment [1] was found to be 89 nM; in experiment [2] it was 3470 nM; in the experiment on BA/F3 (insSVD) cells, 498 nM.

As for `C=CC(=O)N1CCn2nc(-c3ccc(C(F)(F)F)cc3)c(-c3ccncc3C3CC3)c2C1` [Example 55, 1-[3-(3-cyclopropylpyridin-4-yl)-2-[4-(trifluoromethyl)phenyl]-6,7-dihydropyrazolo[1,5-a]pyrazin-5(4H)-yl]prop-2-en-1-one], the values for the IC50 (in experiment [1]; in experiment [2]; with BA/F3 (insSVD) cells) were 350 nM, 2540 nM and 744 nM, respectively.

`C=CC(=O)N1CCn2nc(-c3ccc(C(F)(F)F)cc3)c(-c3ccnc4[nH]c(C)c(C)c34)c2C1` [Example 56, 1-[3-(2,3-dimethyl-1H-pyrrolo[2,3-b]pyridin-4-yl)-2-[4-(trifluoromethyl)phenyl]-6,7-dihydropyrazolo[1,5-a]pyrazin-5(4H)-yl]prop-2-en-1-one]: the IC50 was 281 nM in experiment [1], 670 nM in experiment [2] and 124 nM in the experiment with BA/F3 (insSVD) cells.

Regarding `Cc1c[nH]c2nccc(-c3c(-c4ccc(Cl)cc4F)nn4c3CN(C(=O)/C=C/CN(C)C)CC4)c12` [Example 57, (2E)-1-[2-(4-chloro-2-fluorophenyl)-3-(3-methyl-1H-pyrrolo[2,3-b]pyridin-4-yl)-6,7-dihydropyrazolo[1,5-a]pyrazin-5(4H)-yl]-4-(dimethylamino)but-2-en-1-one], the IC50 in experiment [1] is 165 nM; in experiment [2], 256 nM; in the experiment on BA/F3 (insSVD) cells it was 85.7 nM.

In the case of `Cc1c[nH]c2nccc(-c3c(-c4ccc(C(F)(F)F)cc4)nn4c3CN(C(=O)/C=C/CN(C)C)CC4)c12` [Example 58, (2E)-4-(dimethylamino)-1-[3-(3-methyl-1H-pyrrolo[2,3-b]pyridin-4-yl)-2-[4-(trifluoromethyl)phenyl]-6,7-dihydropyrazolo[1,5-a]pyrazin-5(4H)-yl]but-2-en-1-one], the IC50 in experiment [1] was determined as 446 nM; in experiment [2], 1300 nM; with BA/F3 (insSVD) cells, 138 nM.

For the molecule `COc1ccc(-c2nn3c(c2-c2ccnc4[nH]cc(C)c24)CN(C(=O)/C=C/CN(C)C)CC3)cc1F` [Example 59, (2E)-4-(dimethylamino)-1-[2-(3-fluoro-4-methoxyphenyl)-3-(3-methyl-1H-pyrrolo[2,3-b]pyridin-4-yl)-6,7-dihydropyrazolo[1,5-a]pyrazin-5(4H)-yl]but-2-en-1-one], the IC50 amounted to 813 nM in experiment [1], 956 nM in experiment [2] and 488 nM in the experiment with BA/F3 (insSVD) cells.

As to `COc1ccc(-c2nn3c(c2-c2ccnc4[nH]cc(C)c24)CN(C(=O)/C=C/CN(C)C)CC3)cc1` [Example 60, (2E)-4-(dimethylamino)-1-[2-(4-methoxyphenyl)-3-(3-methyl-1H-pyrrolo[2,3-b]pyridin-4-yl)-6,7-dihydropyrazolo[1,5-a]pyrazin-5(4H)-yl]but-2-en-1-one], the IC50 is 939 nM in experiment [1], 1410 nM in experiment [2] and 647 nM in the experiment with BA/F3 (insSVD) cells.

With `Cc1c[nH]c2nccc(-c3c(-c4cccc(C#N)c4)nn4c3CN(C(=O)/C=C/CN(C)C)CC4)c12` [Example 61, 3-{5-[(2E)-4-(dimethylamino)but-2-enoyl]-3-(3-methyl-1H-pyrrolo[2,3-b]pyridin-4-yl)-4,5,6,7-tetrahydropyrazolo[1,5-a]pyrazin-2-yl}benzonitrile], the IC50 in experiment [1] worked out at 2380 nM; in experiment [2], 398 nM; with BA/F3 (insSVD) cells, 922 nM.

For `C=C(CN(C)C)C(=O)N1CCn2nc(-c3ccc(F)cc3)c(-c3ccncc3)c2C1` [Example 62, 2-[(dimethylamino)methyl]-1-[2-(4-fluorophenyl)-3-(pyridin-4-yl)-6,7-dihydropyrazolo[1,5-a]pyrazin-5(4H)-yl]prop-2-en-1-one], the IC50 in experiment [1] stood at 29.5 nM; in experiment [2], 87.6 nM; in the experiment on BA/F3 (insSVD) cells it was 390 nM.

On to `O=C(/C=C/CN1CCOCC1)N1CCn2nc(-c3ccc(F)cc3)c(-c3ccncc3)c2C1` [Example 63, (2E)-1-[2-(4-fluorophenyl)-3-(pyridin-4-yl)-6,7-dihydropyrazolo[1,5-a]pyrazin-5(4H)-yl]-4-(morpholin-4-yl) but-2-en-1-one], for which the 50% inhibitory concentration (IC50) is 2.64 nM in experiment [1], 9 nM in experiment [2] and 221 nM in the experiment with BA/F3 (insSVD) cells.

`C=C(CN1CCOCC1)C(=O)N1CCn2nc(-c3ccc(F)cc3)c(-c3ccncc3)c2C1` [Example 64, 1-[2-(4-fluorophenyl)-3-(pyridin-4-yl)-6,7-dihydropyrazolo[1,5-a]pyrazin-5(4H)-yl]-2-[(morpholin-4-yl)methyl]prop-2-en-1-one]: the IC50 worked out at 268 nM in experiment [1], 698 nM in experiment [2] and 5050 nM in the experiment on BA/F3 (insSVD) cells.

As for `COC/C=C/C(=O)N1CCn2nc(-c3ccc(F)cc3)c(-c3ccncc3)c2C1` [Example 66, (2E)-1-[2-(4-fluorophenyl)-3-(pyridin-4-yl)-6,7-dihydropyrazolo[1,5-a]pyrazin-5(4H)-yl]-4-methoxybut-2-en-1-one], the IC50 in experiment [1] turned out to be 87.2 nM; in experiment [2] it was 222 nM; with BA/F3 (insSVD) cells it was 1750 nM.

Take `O=C(/C=C/C(F)(F)F)N1CCn2nc(-c3ccc(F)cc3)c(-c3ccncc3)c2C1` [Example 67, (2E)-4,4,4-trifluoro-1-[2-(4-fluorophenyl)-3-(pyridin-4-yl)-6,7-dihydropyrazolo[1,5-a]pyrazin-5(4H)-yl]but-2-en-1-one]: the IC50 amounted to 1.22 nM in experiment [1], 3.3 nM in experiment [2] and 83.4 nM in the experiment with BA/F3 (insSVD) cells.
